Experimental data taken from ChEMBL document CHEMBL1126416, “Caracasanamide, a novel hypotensive agent from Verbesina caracasana” (Bioorg Med Chem Lett, 1992).

Legend:
Type in all cases: functional, organism-based
Rattus norvegicus [1] = assay: Concentration at which decrease blood pressure of anesthetized rat when administered intravenously; 50-6400 ug/kg body weight
Rattus norvegicus [2] = assay: Concentration at which no change in heart rate of anesthetized rat when administered intravenously was observed; 50-6400 ug/kg body weight
Rattus norvegicus [3] = assay: Concentration at which increase in respiratory frequency of anesthetized rat when administered intravenously was observed; 50-6400 ug/kg body weight
Rattus norvegicus [4] = assay: Concentration at which increase in tidal volume of anesthetized rat when administered intravenously was observed; 50-6400 ug/kg body weight
Rattus norvegicus [5] = assay: Concentration at which increase cardiac inotropism of anesthetized rat when administered intravenously was observed; 50-6400 ug/kg body weight

Measured: Concentration

COc1ccc(/C=C\C(=O)NCCCC/N=C(\N)NCC=C(C)C)cc1OC
50 µg/kg: all assays above
